{
  "source": "patent US6436627B1",
  "about": "“Gene encoding an invertebrate α1 calcium channel subunit” (The Research Foundation of State University of New York, priority 1995, dated 2002)",
  "type_in_all_cases": "cell-based",
  "key": {"[1]": {"target": "T1, rabbit cardiac calcium channel (α1CΔN60 + α2−δ + β) (Oryctolagus cuniculus, UniProt P15381)", "T1 construct": "expressed in transfected cells; host or cells: Xenopus oocytes injected with cRNA", "assay": "Calcium channel currents in Xenopus oocytes expressing the rabbit cardiac α1C subunit with α2-δ and β subunits", "conditions": "2 μM BayK8644, Solution 2, BAPTA preinjection", "excerpt": "We completed an analysis of 14 different chimeras to identify the region which was preventing expression of the Drosophila Dmca1D calcium channel currents in Xenopus oocytes. As a result of that analysis we defined a short region of 67 amino acids in the cytoplasmic loop between repeats II and III that was causing the difficulty (see FIG. 11). When an 85 amino acid segment from the rabbit cardiac α1 C subunit was substituted in place of this 67 amino acid Drosophila sequence, we were able to reproducibly generate small calcium channel currents using barium as the charge carrier. In this Example, and in the experiments described in the Examples below, we used a combination of subunit cRNAs. […] When control experiments were run using rabbit cardiac calcium channels, the same auxiliary subunits were used and the rabbit αlCΔN60 subunit was used in place of the Drosophila L23RDD2 α1 chimera.\nConstruct L23RDD2 in the pAGA2 vector (Wei et al. (1991) J. Biol. Chem. 266:21943-21947) encodes the Drosophila DmcalD calcium channel α1 subunit. The coding sequence begins with the fifth methionine in the published sequence (Zheng et al. (1995) J. Neurosci. 15:1132-1143). A part of the II-III cytoplasmic loop (amino acids 1222-1228 in Zheng et al. (1995) J. Neurosci. 15:1132-1143) has been replaced with 85 amino acids from the rabbit cardiac α1C subunit (amino acids 790-874, Wei et al. 1991, supra ). […]"}, "[2]": {"target": "T2, Drosophila Dmca1D calcium channel (L23RDD2 α1 + α2−δ + β) (Drosophila melanogaster, UniProt Q24270, A1391P/C1440T/D1375E/D1388K/D1403I/D1421E/D1422S/D1433P/DEL1408-1416/DEL1426-1431/E1379S/E1381Q/E1419P/E1434Y/E1435P/E1441G/G1404N/H1387E/H1396E/I1402K/INS1389RKKLARTA/INS1394[…]/L1420N/M1439T/P1386E/P1400T/Q1392E/Q1417L/R1437P/S1378T/S1395G/T1399P/V1380A/V1436N)", "T2 construct": "rabbit cardiac α1C subunit amino acids 790-874 (85 aa insert replacing the fly II-III loop segment); expressed in transfected cells; host or cells: Xenopus oocytes injected with cRNA", "T2 sequence (P13806 27-960, stated change not applied)": "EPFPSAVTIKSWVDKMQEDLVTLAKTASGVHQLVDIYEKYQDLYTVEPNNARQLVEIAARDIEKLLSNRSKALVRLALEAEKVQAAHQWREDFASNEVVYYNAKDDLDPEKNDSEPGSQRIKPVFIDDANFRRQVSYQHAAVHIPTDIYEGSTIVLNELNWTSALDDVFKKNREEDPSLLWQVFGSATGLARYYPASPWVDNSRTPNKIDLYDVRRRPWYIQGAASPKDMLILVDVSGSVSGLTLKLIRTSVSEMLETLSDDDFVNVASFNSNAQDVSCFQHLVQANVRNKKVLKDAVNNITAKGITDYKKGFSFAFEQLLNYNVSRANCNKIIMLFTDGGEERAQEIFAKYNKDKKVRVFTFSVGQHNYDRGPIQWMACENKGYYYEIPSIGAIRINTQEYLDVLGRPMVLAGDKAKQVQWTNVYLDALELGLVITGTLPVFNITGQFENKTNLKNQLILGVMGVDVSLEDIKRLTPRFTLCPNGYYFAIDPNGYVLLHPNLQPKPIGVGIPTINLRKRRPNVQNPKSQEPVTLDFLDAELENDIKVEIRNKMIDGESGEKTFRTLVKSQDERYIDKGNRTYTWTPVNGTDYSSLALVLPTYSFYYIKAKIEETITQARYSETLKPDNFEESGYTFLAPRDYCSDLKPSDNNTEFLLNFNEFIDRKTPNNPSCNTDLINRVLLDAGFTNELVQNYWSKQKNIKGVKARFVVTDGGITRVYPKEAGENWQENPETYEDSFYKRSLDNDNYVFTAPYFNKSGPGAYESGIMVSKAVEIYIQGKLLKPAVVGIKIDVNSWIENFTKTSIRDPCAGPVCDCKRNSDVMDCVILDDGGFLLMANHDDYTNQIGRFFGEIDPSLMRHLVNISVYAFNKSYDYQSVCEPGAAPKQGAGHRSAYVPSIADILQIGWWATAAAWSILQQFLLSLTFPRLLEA", "T2 sequence (P13806 961-1106, stated change not applied)": "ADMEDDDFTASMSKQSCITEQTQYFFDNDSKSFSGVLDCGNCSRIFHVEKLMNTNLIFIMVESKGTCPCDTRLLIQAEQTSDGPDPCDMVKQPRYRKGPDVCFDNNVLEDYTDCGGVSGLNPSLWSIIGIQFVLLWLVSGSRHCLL", "T2 sequence (Q24270 other isoform, or with tags, fused parts or gaps with the stated changes)": "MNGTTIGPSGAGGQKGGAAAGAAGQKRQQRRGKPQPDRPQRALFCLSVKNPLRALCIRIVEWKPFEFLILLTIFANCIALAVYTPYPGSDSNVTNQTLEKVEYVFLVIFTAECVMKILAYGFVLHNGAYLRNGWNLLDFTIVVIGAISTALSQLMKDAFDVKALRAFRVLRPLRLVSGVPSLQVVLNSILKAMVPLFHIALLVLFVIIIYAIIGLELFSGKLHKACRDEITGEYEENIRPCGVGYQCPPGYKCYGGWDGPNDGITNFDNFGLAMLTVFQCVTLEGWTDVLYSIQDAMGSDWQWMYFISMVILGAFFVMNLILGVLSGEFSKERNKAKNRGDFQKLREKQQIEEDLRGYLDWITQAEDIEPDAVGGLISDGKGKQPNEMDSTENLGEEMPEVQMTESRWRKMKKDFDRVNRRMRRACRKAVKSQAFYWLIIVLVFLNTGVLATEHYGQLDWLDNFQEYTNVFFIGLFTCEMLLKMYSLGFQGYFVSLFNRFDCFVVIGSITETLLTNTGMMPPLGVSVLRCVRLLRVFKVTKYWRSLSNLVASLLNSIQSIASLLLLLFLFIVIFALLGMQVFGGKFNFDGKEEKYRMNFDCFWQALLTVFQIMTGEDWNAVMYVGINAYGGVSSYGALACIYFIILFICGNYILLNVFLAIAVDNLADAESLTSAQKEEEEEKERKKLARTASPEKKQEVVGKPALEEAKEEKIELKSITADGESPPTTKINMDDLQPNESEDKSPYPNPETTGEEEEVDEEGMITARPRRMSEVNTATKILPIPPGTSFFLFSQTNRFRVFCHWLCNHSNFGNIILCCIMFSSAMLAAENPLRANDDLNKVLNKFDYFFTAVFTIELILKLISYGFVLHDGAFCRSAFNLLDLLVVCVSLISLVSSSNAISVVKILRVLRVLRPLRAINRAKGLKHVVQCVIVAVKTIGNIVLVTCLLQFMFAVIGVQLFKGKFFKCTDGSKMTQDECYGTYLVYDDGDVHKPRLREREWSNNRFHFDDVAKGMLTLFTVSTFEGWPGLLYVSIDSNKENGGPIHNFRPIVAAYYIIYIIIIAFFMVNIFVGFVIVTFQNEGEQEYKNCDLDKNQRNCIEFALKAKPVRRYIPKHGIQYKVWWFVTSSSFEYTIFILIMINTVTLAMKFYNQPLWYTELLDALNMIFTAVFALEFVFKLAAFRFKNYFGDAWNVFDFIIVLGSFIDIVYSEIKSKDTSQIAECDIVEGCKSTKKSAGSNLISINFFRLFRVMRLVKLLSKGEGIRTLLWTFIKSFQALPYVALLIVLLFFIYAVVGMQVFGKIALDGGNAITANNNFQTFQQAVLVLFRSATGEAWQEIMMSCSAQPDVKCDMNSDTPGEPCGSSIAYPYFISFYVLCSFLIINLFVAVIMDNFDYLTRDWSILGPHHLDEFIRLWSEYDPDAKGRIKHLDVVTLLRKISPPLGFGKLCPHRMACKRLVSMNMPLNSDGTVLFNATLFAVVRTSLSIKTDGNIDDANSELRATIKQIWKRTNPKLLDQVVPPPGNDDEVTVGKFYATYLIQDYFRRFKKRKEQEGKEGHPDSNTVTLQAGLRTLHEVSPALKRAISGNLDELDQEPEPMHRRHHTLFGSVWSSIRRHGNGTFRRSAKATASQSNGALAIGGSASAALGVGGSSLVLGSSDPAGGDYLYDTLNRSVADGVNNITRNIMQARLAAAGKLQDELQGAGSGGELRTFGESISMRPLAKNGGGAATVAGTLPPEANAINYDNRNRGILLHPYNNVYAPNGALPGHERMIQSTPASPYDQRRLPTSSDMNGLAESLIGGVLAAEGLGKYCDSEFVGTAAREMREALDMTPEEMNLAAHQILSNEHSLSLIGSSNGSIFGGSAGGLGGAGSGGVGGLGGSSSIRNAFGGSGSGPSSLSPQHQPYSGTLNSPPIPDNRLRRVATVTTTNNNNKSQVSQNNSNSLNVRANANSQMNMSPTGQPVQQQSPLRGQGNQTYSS", "assay": "Calcium channel currents in Xenopus oocytes expressing Drosophila L23RDD2 α1 with α2-δ and β subunits", "conditions": "2 μM BayK8644, Solution 2, BAPTA preinjection", "excerpt": "(§1) Construct L23RDD2 in the pAGA2 vector (Wei et al. (1991) J. Biol. Chem. 266:21943-21947) encodes the Drosophila DmcalD calcium channel α1 subunit. The coding sequence begins with the fifth methionine in the published sequence (Zheng et al. (1995) J. Neurosci. 15:1132-1143). A part of the II-III cytoplasmic loop (amino acids […] in Zheng et al. (1995) J. Neurosci. 15:1132-1143) has been replaced with 85 amino acids from the rabbit cardiac α1C subunit (amino acids 790-874, Wei et al. 1991, supra ). The α2−δ subunit used in these studies is MXTα2−δ. This is an EcoRI fragment from the rabbit skeletal muscle α2−δ subunit described by Mikami et al. ((1989) Nature340:230-233) subcloned into the Xenopus oocyte expression vector pBScMXT (from L. Salkoff, Washington, St Louis). The Drosophila beta subunit clone used was β-DN2CI in oocyte expression vector pAGA2. This beta subunit isoform contains both conserved domains and the N2 form of form of the amino terminus. The rabbit cardiac α1C subunit clone (Wei et al. 1991, supra) (in the pAGA2 vector) was CardΔN60 in which the first 60 amino acids on the N terminus were deleted to enhance expression.\n(§2) Injection mixtures were prepared in 1 mM Tris pH7.0 and 50 nl was injected into each oocyte. For studies of the Drosophila L23RDD2 channel αl subunit the concentrations of the “undiluted” cocktail in ng/ul were: 300 αl, 150 α2−δ, 83 β. For studies of the rabbit cardiac αl subunit the concentrations of the “undiluted” cocktail in ng/μl were: 12 α1, 6.6 α2−δ, 3.6 β. Oocytes were incubated at 18° C. in ND96 plus supplements (Goldin (1992) Methods Enz. 207:266-279) (changed daily) until recording.\n(§3) Two different recording solutions were used. Solution 1 consisted of (in mM): 40 Ba(OH)2, 50 NaOH, 2 KOH, 1 niflumic acid, 0.1 EGTA, 5 HEPES, adjusted to pH 7.4 with methanesulfonic acid (Pragnell et al. (1994) Nature 368:67-70). Solution 2 was used for some experiments and consisted of (in mM): 40 Ba(OH)2, 52 TEA, 5 HEPES, adjusted to pH 7.4 with methanesulfonic acid (Yang et al. (1993) Nature 366:158-161). […]\n(§4) FIG. 20 summarizes a dose response curve for the dihydropyridine antagonist nifedipine using oocytes expressing CRNA (in ng/ul): 150 L23RDD2 α1, 75 α2−δ, and 41.5 β. Each point represents 3 to 9 oocytes recorded in Solution 1. […] This compares well with the nifedipine sensitivity determined for this calcium channel in Drosophila larval muscle where 10 μM nifedipine blocks 80% of the current associated with the Dmca1D current (Gielow et al. (1995) J. Neurosci. 15:6085-6093). […] Thus, the Xenopus oocyte expression system is ready for use in testing compounds active against this calcium channel in insects. […]"}, "[3]": {"target": "T3, Drosophila Dmca1D calcium channel (L23RDD2 α1 + α2−δ + β) (Drosophila melanogaster, UniProt Q24270, A1391P/C1440T/D1375E/D1388K/D1403I/D1421E/D1422S/D1433P/DEL1408-1416/DEL1426-1431/E1379S/E1381Q/E1419P/E1434Y/E1435P/E1441G/G1404N/H1387E/H1396E/I1402K/INS1389RKKLARTA/INS1394QEVVGKPALEEAKEEKIELKSITAD/L1420N/M1439T/P1386E/P1400T/Q1392E/Q1417L/R1437P/S1378T/S1395G/T1399P/V1380A/V1436N)", "T3 construct": "rabbit cardiac α1C subunit amino acids 790-874 (85 aa insert replacing the fly II-III loop segment); expressed in transfected cells; host or cells: Xenopus oocytes injected with cRNA", "T3 sequence (P13806 27-960, stated change not applied)": "as the sequence (P13806 27-960, stated change not applied) above", "T3 sequence (P13806 961-1106, stated change not applied)": "as the sequence (P13806 961-1106, stated change not applied) above", "T3 sequence (Q24270 other isoform, or with tags, fused parts or gaps with the stated changes)": "as the sequence (Q24270 other isoform, or with tags, fused parts or gaps with the stated changes) above", "assay": "Calcium channel currents in Xenopus oocytes expressing Drosophila L23RDD2 α1 with α2-δ and β subunits", "excerpt": "as §1, §2, §3, §4"}},
  "data": [
    {"smiles": "COC(=O)C1=C(C)NC(C)=C([N+](=O)[O-])C1c1ccccc1C(F)(F)F", "note": "(stereo not drawn) [BayK8644]", "values": [
      {"measurement": "Effect of BayK on the channel current (in words)", "setting": "[1]", "result": "increase in the peak current and slowing of the tail currents"},
      {"measurement": "Peak current in the presence of BayK", "setting": "[1]; same oocyte without BayK 488.2 nA", "result": 1673.7, "unit": "nA"},
      {"measurement": "Effect of BayK on the channel current (in words)", "setting": "[2]", "result": "no stimulation"},
      {"measurement": "Effect on tail current kinetics in the presence of BayK (in words)", "setting": "[2]", "result": "no obvious change in kinetics"},
      {"measurement": "Peak current in the presence of BayK", "setting": "[2]; same oocyte without BayK 1548.5 nA", "result": 1208.1, "unit": "nA"}
    ]},
    {"smiles": "COC(=O)C1=C(C)NC(C)=C(C(=O)OC)C1c1ccccc1[N+](=O)[O-]", "note": "[nifedipine]", "values": [
      {"measurement": "EC50", "setting": "[3]", "result": "~3", "unit": "µM"}
    ]}
  ]
}
